Laboratory results as given in ChEMBL document CHEMBL4765295, “Synthesis, pharmacological profile and 2D-QSAR studies of curcumin-amino acid conjugates as potential drug candidates” (Eur J Med Chem, 2020).
Values joined by “and” are separate entries in the source; they are usually repeats but may differ in a detail not shown here. Equal values may be shown once.

What was measured:
Staphylococcus aureus = assay: Antibacterial activity against Staphylococcus aureus ATCC 25923 incubated for 18 hrs by agar dilution method; format: functional
Mus musculus [1] = assay: Analgesic activity in albino mouse assessed as forepaw licking/jumping latency time at 10 mg/kg, ip measured after 90 mins by hot plate test (reference value: 2.72 +/- 0.01 sec); format: functional; details: 1.5 h
[2] = Toxicity in albino mouse assessed as induction of toxic symptoms at 50 to 100 mg/kg, ip measured after 24 hrs; format: organism-based; details: in vivo, dose 50-100 mg/kg
Mus musculus [3] = assay: Analgesic activity in albino mouse assessed protection against acetic acid-induced abdominal writhing at 10 mg/kg, ip pretreated for 1 hr followed by acetic acid challenge and measured starting 5 mins post acetic acid challenge for 10 mins relative to indomethacin; format: functional; details: time 75 min, 1.25 h
Mus musculus [4] = assay: Analgesic activity in albino mouse assessed as protection at 10 mg/kg, ip measured after 30 mins by hot plate test (reference value: 0 %); format: functional; details: 0.5 h
Streptococcus pyogenes = assay: Antibacterial activity against Streptococcus pyogenes ATCC 19615 incubated for 18 hrs by agar dilution method; format: functional
Splenocyte [5] = assay: Immunomodulatory activity in Swiss albino mouse splenocytes assessed as cell viability at 10 uM by measuring stimulation index incubated for 72 hrs in presence of mitogenic stimulus phytohaemagglutinin by MTT assay (reference value: 1.00 +/- 0.24); format: functional
Rattus norvegicus [6] = assay: Anti-inflammatory activity in Wistar rat assessed as inhibition of carrageenan-induced paw edema at 10 mg/kg, ip pretreated for 1 hr followed by carrageenan challenge and measured after 4 hr relative to indomethacin; format: functional; details: time 5 hrs
Rattus norvegicus [7] = assay: Antiinflammatory activity in Wistar rat model of carrageenan-induced paw edema assessed as reduction in thickness of paw edema at 10 mg/kg, ip pretreated for 1 hr followed by carrageenan challenge and measured after 24 hrs (reference value: 0.83 +/-0.08 mm); format: functional; details: time 25 hrs
Mus musculus [8] = assay: Analgesic activity in albino mouse assessed as protection at 10 mg/kg, ip measured after 90 mins by hot plate test (reference value: 0 %); format: functional; details: 1.5 h
[9] = Ulcerogenic activity in fasted albino mouse assessed as ulcer index in gastric mucosa at 10 mg/kg, po for 3 days (reference value: 0); format: toxicity, organism-based; details: in vivo, 72 h, time 3 day
[10] = Ulcerogenic activity in fasted albino mouse assessed as average severity of ulcers in gastric mucosa at 10 mg/kg, po for 3 days (reference value: 0); format: toxicity, organism-based; details: in vivo, 72 h, time 3 day
Rattus norvegicus [11] = assay: Anti-inflammatory activity in Wistar rat assessed as inhibition of carrageenan-induced paw edema at 10 mg/kg, ip pretreated for 1 hr followed by carrageenan challenge and measured after 2 hr relative to control (reference value: 0.00 +/-0.03 %); format: functional; details: time 3 hrs
[12] = Ulcerogenic activity in fasted albino mouse assessed as incidence of gastric ulceration at 10 mg/kg, po for 3 days (reference value: 0 %); format: toxicity, organism-based; details: in vivo, 72 h, time 3 day
Mus musculus [13] = assay: Analgesic activity in albino mouse assessed as forepaw licking/jumping latency time at 10 mg/kg, ip measured after 30 mins by hot plate test (reference value: 5.02 +/- 0.09 sec); format: functional; details: 0.5 h
Candida albicans = assay: Antifungal activity against Candida albicans incubated for 18 to 24 hrs by CLSI method; format: functional; details: time 18-24 hrs
Rattus norvegicus [14] = assay: Anti-inflammatory activity in Wistar rat assessed as inhibition of carrageenan-induced paw edema at 10 mg/kg, ip pretreated for 1 hr followed by carrageenan challenge and measured after 24 hr relative to control (reference value: 0.00 +/-0.3 %); format: functional; details: time 25 hrs
Rattus norvegicus [15] = assay: Antiinflammatory activity in Wistar rat model of carrageenan-induced paw edema assessed as reduction in thickness of paw edema at 10 mg/kg, ip pretreated for 1 hr followed by carrageenan challenge and measured after 4 hrs (reference value: 1.40 +/-0.10 mm); format: functional; details: time 5 hrs
MCF7 = assay: Antiproliferative activity against human MCF7 cells assessed as inhibition of cell growth after 72 hrs by MTT assay; format: functional, cell-based; details: MCF7, 72 h
Mus musculus [16] = assay: Analgesic activity in albino mouse assessed as forepaw licking/jumping latency time at 10 mg/kg, ip measured after 120 mins by hot plate test (reference value: 2.62 +/- 0.06 sec); format: functional; details: 2 h
Rattus norvegicus [17] = assay: Anti-inflammatory activity in Wistar rat assessed as inhibition of carrageenan-induced paw edema at 10 mg/kg, ip pretreated for 1 hr followed by carrageenan challenge and measured after 3 hr relative to control (reference value: 0.00 +/-0.1 %); format: functional; details: time 4 hrs
Mus musculus [18] = assay: Analgesic activity in albino mouse assessed as protection at 10 mg/kg, ip measured after 120 mins by hot plate test relative to indomethacin; format: functional; details: 2 h
PC-3 = assay: Antiproliferative activity against human PC3 cells assessed as inhibition of cell growth after 72 hrs by MTT assay; format: functional, cell-based; details: PC-3, 72 h
A549 = assay: Antiproliferative activity against human A549 cells assessed as inhibition of cell growth after 72 hrs by MTT assay; format: functional, cell-based; details: A549, 72 h
Mus musculus [19] = assay: Analgesic activity in albino mouse assessed reduction in acetic acid-induced abdominal writhing by measuring writing reflex at 10 mg/kg, ip pretreated for 1 hr followed by acetic acid challenge and measured starting 5 mins post acetic acid challenge for 10 mins (reference value: 42.4 +/- 1.02); format: functional; details: time 75 min, 1.25 h
Rattus norvegicus [20] = assay: Antiinflammatory activity in Wistar rat model of carrageenan-induced paw edema assessed as reduction in thickness of paw edema at 10 mg/kg, ip pretreated for 1 hr followed by carrageenan challenge and measured after 2 hrs (reference value: 2.06 +/-0.09 mm); format: functional; details: time 3 hrs
Salmonella typhimurium = assay: Antibacterial activity against Salmonella typhimurium ATCC 19430 incubated for 18 hrs by agar dilution assay; format: functional, Salmonella enterica subsp. enterica serovar Typhimurium; details: Salmonella enterica
Mus musculus [21] = assay: Analgesic activity in albino mouse assessed as protection at 10 mg/kg, ip measured after 60 mins by hot plate test (reference value: 0 %); format: functional; details: 1 h
Rattus norvegicus [22] = assay: Antiinflammatory activity in Wistar rat model of carrageenan-induced paw edema assessed as reduction in thickness of paw edema at 10 mg/kg, ip pretreated for 1 hr followed by carrageenan challenge and measured after 1 hr (reference value: 2.41 +/-0.05 mm); format: functional; details: time 1 hr after carrageenan
Peritoneal macrophage [23] = assay: Antiinflammatory activity in […] mouse Peritoneal macrophages assessed as inhibition of LPS-induced NO production at 10 uM preincubated for 1 hr followed by LPS stimulation measured after 24 hrs by Griess method relative to control (reference value: 0.0 %); format: functional; set-up: scale not given: the % may be the effect or the level left; details: time 25 hrs
Mus musculus [24] = assay: Analgesic activity in albino mouse assessed protection against acetic acid-induced abdominal writhing at 10 mg/kg, ip pretreated for 1 hr followed by acetic acid challenge and measured starting 5 mins post acetic acid challenge for 10 mins relative to control (reference value: 0 %); format: functional; details: time 75 min, 1.25 h
Rattus norvegicus [25] = assay: Anti-inflammatory activity in Wistar rat assessed as inhibition of carrageenan-induced paw edema at 10 mg/kg, ip pretreated for 1 hr followed by carrageenan challenge and measured after 4 hr relative to control (reference value: 0.00 +/-0.4 %); format: functional; details: time 5 hrs
Rattus norvegicus [26] = assay: Anti-inflammatory activity in Wistar rat assessed as inhibition of carrageenan-induced paw edema at 10 mg/kg, ip pretreated for 1 hr followed by carrageenan challenge and measured after 1 hr relative to control (reference value: 0.00 +/-0.02 %); format: functional; details: time 2 hrs
Peritoneal macrophage [27] = assay: Antiinflammatory activity in […] mouse Peritoneal macrophages assessed as reduction in LPS-induced NO production by measuring reduction in stimulation index at 10 uM preincubated for 1 hr followed by LPS stimulation measured after 24 hrs by Griess method (reference value: 27.31 +/- 2.56 uM); format: functional; details: time 25 hrs
Mus musculus [28] = assay: Analgesic activity in albino mouse assessed as forepaw licking/jumping latency time at 10 mg/kg, ip measured after 60 mins by hot plate test (reference value: 3.42 +/- 0.03 sec); format: functional; details: 1 h
Rattus norvegicus [29] = assay: Antiinflammatory activity in Wistar rat model of carrageenan-induced paw edema assessed as reduction in thickness of paw edema at 10 mg/kg, ip pretreated for 1 hr followed by carrageenan challenge and measured after 3 hrs (reference value: 1.79 +/-0.07 mm); format: functional; details: time 4 hrs
Mus musculus [30] = assay: Analgesic activity in albino mouse assessed as protection at 10 mg/kg, ip measured after 120 mins by hot plate test (reference value: 0 %); format: functional; details: 2 h
Splenocyte [31] = assay: Immunomodulatory activity in Swiss albino mouse splenocytes assessed as cell viability at 10 uM by measuring inhibition of stimulation index incubated for 72 hrs in presence of mitogenic stimulus phytohaemagglutinin by MTT assay relative to indomethacin; format: functional; details: read-out: Activity
[32] = Ulcerogenic activity in fasted albino mouse assessed as average number of ulcers in gastric mucosa at 10 mg/kg, po for 3 days (reference value: 0); format: toxicity, organism-based; details: in vivo, 72 h, time 3 day
Pseudomonas aeruginosa = assay: Antibacterial activity against Pseudomonas aeruginosa ATCC 27853 incubated for 18 hrs by agar dilution assay; format: functional

SMILES	MIC (Staphylococcus aureus)	Time (Mus musculus [1])	Activity [2]	Activity (Mus musculus [3])	Activity (Mus musculus [4])	MIC (Streptococcus pyogenes)	Activity_index (Splenocyte [5])	inhibition in vivo at 10 mg/kg (Rattus norvegicus [6])	Activity (Rattus norvegicus [7])	Activity (Mus musculus [8])	UI [9]	Activity [10]	inhibition in vivo at 10 mg/kg (Rattus norvegicus [11])	Activity [12]	Time (Mus musculus [13])	MIC (Candida albicans)	inhibition in vivo at 10 mg/kg (Rattus norvegicus [14])	Activity (Rattus norvegicus [15])	IC50 (MCF7)	Time (Mus musculus [16])	further results
COc1cc(/C=C/C(=O)/C=C(O)/C=C/c2ccc(OC(=O)[C@@H](C)N)c(OC)c2)ccc1OC(=O)[C@@H](C)N.Cl.Cl	0.125 µg/mL and 0.214 µM	4.72 s	Non-Toxic	109.6%	5.6%	0.25 µg/mL and 0.428 µM	1.35	110%	0.59 mm	73.5%	0	0	62%	0%	5.3 s	0.125 µg/mL and 0.214 µM	29%	0.06 mm	10.4 µM	4.02 s	inhibition in vivo at 10 mg/kg (Rattus norvegicus [17]): 74%; Activity (Mus musculus [18]): 127.1%; IC50 (PC-3): 30.7 µM; IC50 (A549): 30.9 µM; Activity (Mus musculus [19]): 13.8; Activity (Rattus norvegicus [20]): 0.79 mm; MIC (Salmonella typhimurium): 0.25 µg/mL and 0.428 µM; Activity (Mus musculus [21]): 70.2%; Activity (Rattus norvegicus [22]): 0.95 mm; Activity (Peritoneal macrophage [23]): 41.26%; Activity (Mus musculus [24]): 67.5%; inhibition in vivo at 10 mg/kg (Rattus norvegicus [25]): 96%; inhibition in vivo at 10 mg/kg (Rattus norvegicus [26]): 61%; Activity (Peritoneal macrophage [27]): 16.04 µM; Time (Mus musculus [28]): 5.82 s; Activity (Rattus norvegicus [29]): 0.46 mm; Activity (Mus musculus [30]): 53.4%; viability at 10 µM (Splenocyte [31]): 89.6%; Activity [32]: 0; MIC (Pseudomonas aeruginosa): 1 µg/mL and 1.71 µM
COc1cc(/C=C/C(=O)/C=C(O)/C=C/c2ccc(OC(=O)CN)c(OC)c2)ccc1OC(=O)CN.Cl.Cl	0.5 µg/mL and 0.9 µM	3.66 s	Non-Toxic	106.5%	0.4%	0.25 µg/mL and 0.45 µM	0.99	101%	0.48 mm	34.6%	0	0	67%	0%	5.04 s	1 µg/mL and 1.8 µM	42%	0.17 mm	9.15 µM	3.52 s	inhibition in vivo at 10 mg/kg (Rattus norvegicus [17]): 74%; Activity (Mus musculus [18]): 81.9%; IC50 (PC-3): 38.7 µM; IC50 (A549): 18.9 µM; Activity (Mus musculus [19]): 14.6; Activity (Rattus norvegicus [20]): 0.69 mm; MIC (Salmonella typhimurium): 0.25 µg/mL and 0.45 µM; Activity (Mus musculus [21]): 25.1%; Activity (Rattus norvegicus [22]): 0.82 mm; Activity (Peritoneal macrophage [23]): 49.98%; Activity (Mus musculus [24]): 65.6%; inhibition in vivo at 10 mg/kg (Rattus norvegicus [25]): 88%; inhibition in vivo at 10 mg/kg (Rattus norvegicus [26]): 66%; Activity (Peritoneal macrophage [27]): 13.66 µM; Time (Mus musculus [28]): 4.28 s; Activity (Rattus norvegicus [29]): 0.46 mm; Activity (Mus musculus [30]): 34.4%; viability at 10 µM (Splenocyte [31]): 122%; Activity [32]: 0; MIC (Pseudomonas aeruginosa): 1 µg/mL and 1.8 µM
